According to patent US20220362151A1, “LIPOSOME FORMULATION” (ROSI CHARNI AS, priority 2019, published 2022):
Counter-ions that a name gives are not always drawn.

Legend:
Solubility in solvents = format: physicochemical
Description: Hydrogenated egg phosphatidylcholine (HEPC), cholesterol (CHO) and fatty acid compound (PA, N-TTA and TTA) were weighed out separately and dissolved in chloroform. N-TTA is not soluble in chloroform alone and was therefore dissolved in a 1:1 mixture of methanol and chloroform. The dissolved lipids were mixed in a molar ratio of 1.81 HEPC:1CHO and 0.5-2 PA/N-TTA/TTA in a 100 or 250 mL Duran round bottom flasks. Next, a thin lipid film was made by slowly evaporating the solvents by using Laborota 4000 rotary evaporator at light vacuum, 200 mbar, and 60 rpm for 1.5-2.5 hours depending on the volume of solvents. To ensure a solvent-free lipid film, full vacuum (0 mbar) was applied the last 30 minutes.
(§1) As a preliminary test, NB4 was exposed to TTA, 2-tr-TTA and PA dissolved in DMSO in concentrations between 37.5 to 300 μM for 48 hours. […] It was decided to not try higher concentrations of TTA PA and 2-tr-TTA dissolved in DMSO because of DMSO's cellular toxicity. In this project, one aim was to compare TTA with N-TTA and 2-tr-N-TTA. […] Compared to DMSO-control there was no significant decrease in cell viability after treatment with B SFAs dissolved in DMSO (p>0.05).

NB4 cell line = experiment: WST-1 viability assay, fatty acids dissolved in DMSO; format: cell-based; conditions: 48 hours
Description: NB4 cells at a concentration of 0.1×10^5 cells/mL were incubated with 37.5, 75, 150 and 300 μM of TTA, 2-tr-TTA and PA dissolved in DMSO for 48 hours. Cell viability was assessed with WST-1 assay after 4 hours of incubation, and the absorption was related to the DMSO-control. Cell viability is presented as percentage of DMSO-control (100%). The assay was performed with triplicates for each concentration of the individual SBFA and the result is presented as mean of the triplicates±SD, n=1.
as §1

solubility in DMSO (Solubility in solvents)	solubility in chloroform (Solubility in solvents; chloroform alone, dissolved in 1:1 methanol and chloroform)	SMILES	cell viability (percentage of DMSO-control), WST-1 (NB4 cell line; NB4, 37.5-300 μM dissolved in DMSO, n=1, p>0.05)	metabolic activity (WST-1), trend as presented in FIG. 1 (NB4 cell line; NB4, 37.5-300 μM in DMSO, stimulating effect especially at 75 μM)
seemingly insoluble		CC#CCCCCCCCCCCCNCC(=O)O [2-trN-TTA, Tetradec-12-yn-1-ylglycine hydrochloride]		
seemingly insoluble	not soluble	CCCCCCCCCCCCCCNCC(=O)O [N-TTA, N-tetradecylglycine]		
		CC#CCCCCCCCCCCCSCC(=O)O [2-tr-TTA, 2-(Tetradec-12-yn-1-ylthio)acetic acid]	lack of significant antiproliferative effect	stimulating effect
